Test results: paper PMC11301271 (FEBS Open Bio, 2024)
Where “and” joins values, the source holds several entries; their conditions need not be identical. Equal entries are not always repeated. Where two headings read alike, the source gives them in different places. Blank lines part the entries; values can stand above or below the compound they belong to.

Legend:
human MK [1] = target: T1, human MK (Homo sapiens, UniProt Q03426); experiment: Steady-state kinetics of human MK (Michaelis-Menten, substrates); type: biochemical; settings: one substrate varied, the other fixed at 5 mM; 32 °C; read-out: Km of recombinant MK for the substrate
T1 construct: His6 (N); made in house; host or cells: E. coli BL21(DE3)

human MK [2] = target: T1, human MK; experiment: MK coupled enzyme assay (pyruvate kinase/lactate dehydrogenase): inhibitor screening and IC50; type: biochemical; settings: for IC50: read-out: IC50 for MK inhibition; for MK inhibition, result in words: screening, 10 μM compound
Experimental: A pET‐15b plasmid encoding human MK (UniProt Q03426) with an N‐terminal His6‐tag was transformed into E. coli BL21(DE3) cells (New England Biolabs, Whitby, ON, Canada). The cells were cultured in LB at 37 °C until the OD600 of the culture reached 0.6. Expression of the recombinant enzyme was induced by 0.1 mM IPTG for 6 h at 37 °C. The cells were lysed by sonication, and the lysate was subjected to Ni‐affinity chromatography (HisTrap HP, Cytiva, Vancouver, BC, Canada) followed by size exclusion chromatography (HiLoad Superdex 200 PG, Cytiva) (Fig. 2A). […] The purified enzyme was flash‐frozen in liquid nitrogen and stored at −80 °C. The final sample buffer (i.e., the size exclusion buffer) consisted of 10 mM HEPES (pH 7.5), 500 mM NaCl, 2 mM β‐mercaptoethanol, and 5% glycerol.
(§1) MK activity was measured by using a coupled enzyme assay as previously described. The reporter enzymes, pyruvate kinase and lactate dehydrogenase, were purchased as a pre‐mixed buffered solution from MilliporeSigma. […] All reactions were carried out at 32 °C in triplicate unless otherwise noted. Each reaction was initiated by adding 10 μL of MK (50 μg mL^−1; diluted from the −80 °C stock in 50 mM HEPES, pH 7.5) to 990 μL of the reaction buffer containing all the other components except MK (pre‐incubated at 32 °C for 5 min) and immediately transferring to a 1 mL disposable polystyrene cuvette (Fisherbrand) pre‐placed in the temperature‐controlled cell holder of an Agilent 8453 UV–visible Spectroscopy System. Blank reactions were added with 10 μL of 50 mM HEPES (pH 7.5) only. Reaction progress was continuously monitored by measuring the A340 for 1 min. To convert the measured absorbance to product concentration, an absorption coefficient of NADH determined from a calibration curve (5.4107 cm^−1 mM ^−1) was used. Initial rate experiments were conducted by varying the concentration of one substrate while keeping the other at a saturating concentration of 5 mM. Kinetic parameters were determined by fitting the rate data to the Michaelis–Menten model (Eqn 1), vi=VmaxS/Km+S, where [S] represents the concentration of the varied substrate. Data analysis was performed with […] PRISM software (GraphPad Software, Boston, MA, USA).
To prepare master stock solutions, the phosphonate compounds were dissolved in Milli‐Q water to a concentration of 20 mM, either as monosodium salts (monophosphonate compounds) or as trisodium salts (bisphosphonate compounds). Their effects on MK activity were evaluated by using the coupled enzyme assay described above. Each compound was tested at two concentrations: 1 and 10 μM.
To determine the IC 50, a more refined inhibition response across a broader range of inhibitor concentrations was measured. Typically, nine different inhibitor concentrations spanning a 10 000‐fold concentration range were used. Dose–response curves were generated by fitting the inhibition data to the following three‐parameter dose–response equation (Eqn 2), where Max and Min denote the maximum and minimum response, respectively: Response=Min+Max−Min/1+I/IC50.

human MK [3] = target: T1, human MK; experiment: Mode of inhibition and Ki determination, initial rate experiments with MK; type: biochemical; settings: for Ki' (ATP-bound enzyme), mixed inhibition model with respect to ATP: ATP varied 0.05-1 mM, MVA 5 mM; for Ki', uncompetitive inhibition model with respect to MVA: MVA varied 0.01-0.2 mM, ATP 5 mM
Experimental: as §1
In all experiments, one substrate was added at a constant concentration of 5 mM. […] Each inhibitor was tested at four different concentrations ranging from 0 to 200 nM. Data analysis was performed with […] PRISM software. The initial rates were fitted to steady‐state equations describing competitive inhibition model (Eqn 3), vi=VmaxS/Km1+I/Ki+S, noncompetitive inhibition model (Eqn 4), vi=VmaxS/1+I/Ki/Km+S, uncompetitive inhibition model (Eqn 5), vi=VmaxS/1+I/Ki^′/Km/1+I/Ki^′+S, and mixed inhibition model (Eqn 6), vi=VmaxS/1+I/Ki^′/Km1+I/Ki/1+I/Ki^′+S, where [S] represents the concentration of the varied substrate. The selection of the most appropriate models was determined through the extra sum‐of‐squares F test as implemented in the software.

FPPS [4] = target: T2, FPPS (Homo sapiens, UniProt P14324); experiment: Inhibition of FPPS; type: biochemical; settings: read-out: inhibition of FPPS at 10 μM; 10 μM compound; unpublished data
T2 sequence (P14324 1-419): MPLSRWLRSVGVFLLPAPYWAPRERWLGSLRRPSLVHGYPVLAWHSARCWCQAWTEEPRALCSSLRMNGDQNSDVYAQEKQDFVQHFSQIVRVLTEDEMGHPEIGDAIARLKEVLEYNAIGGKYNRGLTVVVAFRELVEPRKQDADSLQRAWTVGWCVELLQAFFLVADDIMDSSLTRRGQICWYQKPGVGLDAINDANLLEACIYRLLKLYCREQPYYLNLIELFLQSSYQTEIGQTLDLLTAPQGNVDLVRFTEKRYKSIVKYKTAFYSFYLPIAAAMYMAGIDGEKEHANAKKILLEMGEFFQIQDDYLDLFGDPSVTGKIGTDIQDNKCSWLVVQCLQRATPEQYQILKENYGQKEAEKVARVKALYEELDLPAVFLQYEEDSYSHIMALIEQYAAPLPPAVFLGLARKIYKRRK

FPPS [5] = target: T2, FPPS; settings: read-out: Kd, binding affinity of FPP for FPPS; ref [21]; cited from earlier work
human MK [6] = target: T1, human MK; design: method as in PMID 9325256, PMID 18302342; settings: ref [19], [20]; read-out: Km of MK for the substrate, previously reported; cited from earlier work

T1 sequence (Q03426 whole entry): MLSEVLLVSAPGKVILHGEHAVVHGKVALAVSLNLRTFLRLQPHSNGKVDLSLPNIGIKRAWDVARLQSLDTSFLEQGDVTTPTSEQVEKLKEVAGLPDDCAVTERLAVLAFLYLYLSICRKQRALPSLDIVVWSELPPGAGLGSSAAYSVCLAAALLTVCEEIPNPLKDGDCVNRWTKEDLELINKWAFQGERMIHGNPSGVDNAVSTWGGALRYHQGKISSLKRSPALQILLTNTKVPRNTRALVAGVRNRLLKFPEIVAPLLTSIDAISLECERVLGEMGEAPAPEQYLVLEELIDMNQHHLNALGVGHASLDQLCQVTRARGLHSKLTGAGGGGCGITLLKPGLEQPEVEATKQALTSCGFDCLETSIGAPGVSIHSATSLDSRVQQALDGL

SMILES: Nc1ncnc2c1ncn2[C@@H]1O[C@H](COP(=O)(O)OP(=O)(O)OP(=O)(O)O)[C@@H](O)[C@H]1O [ATP]
Km (human MK [1]): 61 µM

IC50 (human MK [2]): 3300 nM
SMILES: COc1cccc(OC)c1-c1cc2c(NC(c3ccccc3)P(=O)(O)O)ncnc2s1 (stereo not drawn) [Compound 13, (((6‐(2,6‐dimethoxyphenyl)thieno[2,3‐d]pyrimidin‐4‐yl)amino)(phenyl)methyl)phosphonic acid]

IC50 (human MK [2]): 120 nM
SMILES: O=P(O)(O)C(Nc1ncnc2sc(-c3cccc(C(F)(F)F)c3)cc12)c1ccccc1 (stereo not drawn) [Compound 14, (phenyl((6‐(3‐(trifluoromethyl)phenyl)thieno[2,3‐d]pyrimidin‐4‐yl)amino)methyl)phosphonic acid]

IC50 (human MK [2]): 8.1 nM | Ki (human MK [3]): 3.1 nM | Ki' (ATP-bound enzyme), mixed inhibition model with respect to ATP (human MK [3]): 14 nM | Ki', uncompetitive inhibition model with respect to MVA (human MK [3]): 10 nM | inhibition at 10 µM (FPPS [4]): < 50%
SMILES: Cn1cc(CCP(=O)(O)O)c2cc(-c3ccc(C(F)(F)F)cc3)ccc21 [Compound 16, 2‐(1‐Methyl‐5‐(4‐(trifluoromethyl)phenyl)‐1H‐indol‐3‐yl)ethylphosphonic acid]

IC50 (human MK [2]): 12 nM
SMILES: CC(C)=CCC/C(C)=C/CC/C(C)=C/CO[P@@](=O)(O)OP(=O)(O)O (stereo in doubt) [FPP, farnesyl pyrophosphate, reference compound]
Kd (FPPS [5]): 5 to 6 µM

IC50 (human MK [2]): 2300 nM
SMILES: COc1cc(C)c(F)cc1-c1cc2c(NC(c3ccccc3)P(=O)(O)O)ncnc2s1 (stereo not drawn) [Compound 15]

IC50 (human MK [2]): 1900 nM
SMILES: COc1cc(C)c(Cl)cc1-c1cc2c(NC(c3ccccc3)P(=O)(O)O)ncnc2s1 (stereo not drawn) [Compound 2]

IC50 (human MK [2]): 1600 nM
SMILES: Cc1ccc(-c2cc3c(NC(Cc4ccccc4)P(=O)(O)O)ncnc3s2)cc1OC1CC1 (stereo not drawn) [Compound 10, (1‐((6‐(3‐Cyclopropoxy‐4‐methylphenyl)thieno[2,3‐d]pyrimidin‐4‐yl)amino)‐2‐phenylethyl)phosphonic acid]

MK inhibition, result in words (human MK [2]): Inactive at 10 μM
SMILES: O=P(O)(O)C(Nc1ncnc2sc(-c3cccc(C(F)(F)F)c3)cc12)P(=O)(O)O [Compound 17]

IC50 (human MK [2]): 42 nM | Ki (human MK [3]): 22 nM | Ki'/Ki ratio (human MK [3]; ATP as varied substrate, mixed inhibition model): ~ 17 | Ki' (ATP-bound enzyme), mixed inhibition model with respect to ATP (human MK [3]): 380 nM | Ki', uncompetitive inhibition model with respect to MVA (human MK [3]): 140 nM | inhibition at 10 µM (FPPS [4]): < 50%
SMILES: O=P(O)(O)C(Nc1ncnc2sc(-c3ccc(C(F)(F)F)cc3)cc12)c1ccccc1 (stereo not drawn) [Compound 11, (phenyl((6‐(4‐(trifluoromethyl)phenyl)thieno[2,3‐d]pyrimidin‐4‐yl)amino)methyl)phosphonic acid]

IC50 (human MK [2]): 46 nM
SMILES: O=P(O)(O)C(Nc1ncnc2sc(-c3ccc(F)cc3)cc12)c1ccccc1 (stereo not drawn) [Compound 12, (((6‐(4‐fluorophenyl)thieno[2,3‐d]pyrimidin‐4‐yl)amino)(phenyl)methyl)phosphonic acid]

SMILES: C[C@@](O)(CCO)CC(=O)O [MVA, mevalonic acid]
Km (human MK [1]): 37 µM | Km (human MK [6]): 24 µM and 40.8 µM

SMILES: Cc1ccc(-c2cc3c(NC(Cc4cccc(F)c4)P(=O)(O)O)ncnc3s2)cc1OCC(C)C (stereo not drawn) [Compound 9, (2‐(3‐Fluorophenyl)‐1‐((6‐(3‐isobutoxy‐4‐methylphenyl)thieno[2,3‐d]pyrimidin‐4‐yl)amino)ethyl)phosphonic acid]
IC50 (human MK [2]): 1000 nM

inhibition at 1 µM (human MK [2]; read-out: inhibition of the MK reaction at 1 μM): 96%
SMILES: CC(C)=CCC/C(C)=C/CC/C(C)=C/COP(=O)(O)OP(=O)(O)O [FPP, farnesyl pyrophosphate, reference compound]

IC50 (human MK [2]): 2500 nM
SMILES: Cc1ccc(-c2cc3c(NC(Cc4ccccc4)P(=O)(O)O)ncnc3s2)cc1Cl (stereo not drawn) [Compound 6]

MK inhibition, result in words (human MK [2]): Inactive at 10 μM
SMILES: O=P(O)(O)CNc1ncnc2sccc12 [Compound 1]
